Reference: ChEMBL document CHEMBL3616448, “N-Hydroxyimides and hydroxypyrimidinones as inhibitors of the DNA repair complex ERCC1-XPF” (Bioorg Med Chem Lett, 2015)
Activity calls are given as the source filed them. The rule behind the calls is not given here.

Columns and labels:
[1] = target: Flap endonuclease 1 (Homo sapiens, UniProt P39748); test: Inhibition of FEN1 (unknown origin)
[2] = target: T1, Deoxyribonuclease-1 (Homo sapiens, UniProt P24855); test: Inhibition of DNAse1 (unknown origin)
T1 sequence (P24855 whole entry): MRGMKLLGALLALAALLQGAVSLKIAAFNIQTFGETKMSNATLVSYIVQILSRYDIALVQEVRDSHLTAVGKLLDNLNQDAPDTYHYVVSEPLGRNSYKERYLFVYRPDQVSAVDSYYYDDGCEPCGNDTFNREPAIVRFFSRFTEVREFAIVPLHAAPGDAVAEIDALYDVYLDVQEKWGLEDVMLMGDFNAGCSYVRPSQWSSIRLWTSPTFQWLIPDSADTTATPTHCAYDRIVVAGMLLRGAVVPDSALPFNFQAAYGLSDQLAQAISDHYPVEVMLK

[3] = target: T2, DNA excision repair protein ERCC-1/DNA repair endonuclease XPF (Homo sapiens, UniProt P07992+Q92889); test: Inhibition of ERCC1-XPF (unknown origin) by high-throughput fluorescence based in-vitro endonuclease assay; type: protein-complex assay
T2 sequence (P07992 whole entry): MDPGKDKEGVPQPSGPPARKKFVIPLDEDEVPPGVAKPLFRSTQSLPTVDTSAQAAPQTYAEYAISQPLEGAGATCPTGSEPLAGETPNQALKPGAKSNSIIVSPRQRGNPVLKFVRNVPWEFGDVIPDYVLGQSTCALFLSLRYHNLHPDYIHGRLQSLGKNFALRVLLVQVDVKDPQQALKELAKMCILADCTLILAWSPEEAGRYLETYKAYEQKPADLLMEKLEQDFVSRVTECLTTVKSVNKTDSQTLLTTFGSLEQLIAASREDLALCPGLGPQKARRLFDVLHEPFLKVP
T2 sequence (Q92889 whole entry): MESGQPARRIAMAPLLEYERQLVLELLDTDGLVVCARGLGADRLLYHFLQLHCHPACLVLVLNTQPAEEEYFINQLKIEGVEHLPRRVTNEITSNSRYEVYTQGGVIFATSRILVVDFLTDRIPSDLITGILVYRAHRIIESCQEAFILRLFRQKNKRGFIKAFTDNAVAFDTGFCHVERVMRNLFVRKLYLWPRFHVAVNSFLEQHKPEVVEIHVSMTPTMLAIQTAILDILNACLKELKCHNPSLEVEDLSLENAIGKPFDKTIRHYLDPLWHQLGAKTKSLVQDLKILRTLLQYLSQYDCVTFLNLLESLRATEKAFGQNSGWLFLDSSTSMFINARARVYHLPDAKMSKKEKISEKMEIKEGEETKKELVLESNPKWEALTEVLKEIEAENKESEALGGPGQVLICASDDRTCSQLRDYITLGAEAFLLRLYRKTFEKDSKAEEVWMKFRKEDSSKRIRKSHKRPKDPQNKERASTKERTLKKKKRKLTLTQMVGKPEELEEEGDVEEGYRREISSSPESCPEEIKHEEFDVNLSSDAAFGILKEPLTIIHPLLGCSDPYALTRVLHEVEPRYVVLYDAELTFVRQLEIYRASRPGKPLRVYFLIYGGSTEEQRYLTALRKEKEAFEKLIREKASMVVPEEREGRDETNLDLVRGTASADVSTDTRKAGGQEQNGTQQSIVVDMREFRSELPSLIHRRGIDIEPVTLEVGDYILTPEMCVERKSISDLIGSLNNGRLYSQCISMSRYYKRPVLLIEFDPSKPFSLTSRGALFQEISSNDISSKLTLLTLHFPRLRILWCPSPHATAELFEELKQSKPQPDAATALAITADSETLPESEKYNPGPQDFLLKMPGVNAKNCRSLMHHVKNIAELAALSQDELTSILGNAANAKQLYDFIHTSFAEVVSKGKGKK

[4] = Half life in mouse liver microsomes; type: ADME
[5] = system: HepG2; test: Cytotoxicity against human HepG2 cells; type: cell-based
[6] = Half life in human liver microsomes; type: ADME
[7] = Apparent permeability by PAMPA method; type: physicochemical
[8] = Lipophilicity, log D of the compound; type: physicochemical; conditions: octanol/water
[9] = target: T3, DNA excision repair protein ERCC-1/DNA repair endonuclease XPF (Homo sapiens) (UniProt P07992+Q92889); test: Inhibition of ERCC1-XPF in human A375 cells assessed as potentiation of cisplatin-induced cytotoxicity at 0.1 to 3 uM incubated for 5 days; type: cell-based; conditions: A-375
[10] = target: T3, DNA excision repair protein ERCC-1/DNA repair endonuclease XPF (Homo sapiens); test: Inhibition of ERCC1-XPF in human A375 cells assessed as induction of delay in DNA repair by measuring cumulative frequency of cells up to 10 uM pre-incubated for 1 hr before cisplatin exposure for 1 hr by immunohistochemistry based gammaH2AX foci assay; type: cell-based; conditions: A-375
[11] = system: A-375; test: Cytotoxicity against human A375 cells assessed as reduction in cell number at 0.1 to 3 uM incubated for 5 days; type: cell-based; conditions: a-375, 120 h
[12] = target: T3, DNA excision repair protein ERCC-1/DNA repair endonuclease XPF (Homo sapiens); test: Inhibition of ERCC1-XPF in human A375 cells assessed as reduction in direct nucleotide excision repair of UV-damaged pEGFP plasmid up to 10 uM incubated for 24 hrs by recombinant GFP reporter assay; type: cell-based; conditions: A-375
[13] = target: T2, DNA excision repair protein ERCC-1/DNA repair endonuclease XPF; test: Binding affinity to ERCC1-XPF (unknown origin) by SPR assay; type: protein-complex assay
[14] = target: T3, DNA excision repair protein ERCC-1/DNA repair endonuclease XPF (Homo sapiens); test: Binding affinity to ERCC1-XPF (unknown origin) assessed as melting temperature by thermal shift assay; type: protein-complex assay

Chain of Flap endonuclease 1 (P39748 whole entry): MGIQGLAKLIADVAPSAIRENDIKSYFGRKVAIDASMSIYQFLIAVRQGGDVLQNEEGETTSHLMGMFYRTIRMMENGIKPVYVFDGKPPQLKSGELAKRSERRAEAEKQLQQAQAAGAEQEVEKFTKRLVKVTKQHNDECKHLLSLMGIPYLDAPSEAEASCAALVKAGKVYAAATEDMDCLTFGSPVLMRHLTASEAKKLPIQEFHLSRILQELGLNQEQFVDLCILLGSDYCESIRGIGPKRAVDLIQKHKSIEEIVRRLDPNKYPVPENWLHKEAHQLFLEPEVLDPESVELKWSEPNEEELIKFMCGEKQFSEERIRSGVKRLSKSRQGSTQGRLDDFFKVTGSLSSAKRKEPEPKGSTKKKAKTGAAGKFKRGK

Row | SMILES | IC50 [1] [µM] | IC50 [2] [µM] | IC50 [3] [µM] | also measured
1 | O=C(O)c1nc(-c2cccs2)nc(O)c1O | 10.4 | > 100 | 2.9 | –
2 | O=C(O)c1nc(-c2ccccc2)nc(O)c1O | 16.4 | > 100 | 3.9 | –
3 | COC(=O)c1nc(-c2cccs2)nc(O)c1O | 10.1 | > 100 | 27.3 | –
4 | O=C(NCCN1CCOCC1)c1nc(-c2cccs2)[nH]c(=O)c1O | 4.1 | 58.9 | 1 | –
5 | Cn1c(=O)n(O)c(=O)c2ccccc21 | 2.1 | > 100 | 96.2 | –
6 | O=C1c2cccc3c(Cl)ccc(c23)C(=O)N1O | 0.7 | – | 12 | –
7 | O=C(Nc1cccnc1)c1nc(-c2cccs2)[nH]c(=O)c1O | 8.6 | > 100 | 0.7 | –
8 | CC(C)CCNC(=O)c1nc(C2CCCCN2C)[nH]c(=O)c1O (configuration not stated) | > 100 | – | 8.4 | –
9 | O=C(NCc1ccc(F)cc1)c1nc(-c2cccs2)nc(O)c1O | 2.1 | > 100 | 4.2 | –
10 | O=c1[nH]c2ccccc2c(=O)n1O | 0.3 | > 100 | 18.1 | –
11 | CCCNC(=O)c1nc(-c2cccs2)[nH]c(=O)c1O | 4.2 | > 100 | 2.7 | –
12 | O=c1[nH]c2cc(N3CCCC3)ccc2c(=O)n1O | 1.1 | 27.9 | 9.1 | –
13 | NC(=O)c1nc(-c2cccs2)nc(O)c1O | 23.3 | > 100 | 1 | half-life [4]: 2.5 h; Activity [5]: > 10 µM; half-life [6]: 2.32 h; Papp [7]: 0.7 ×10⁻⁶ cm/s; logD [8]: -0.4
14 | CC(=O)NCCNC(=O)c1nc(-c2cccs2)[nH]c(=O)c1O | 5 | 62.6 | 0.8 | –
15 | O=c1[nH]c2cc(Nc3ccccc3)ccc2c(=O)n1O | 0.23 | 30.2 | 3.9 | –
16 | CC(C)CCNC(=O)c1nc(-c2ccc(CN(C)C)cc2)[nH]c(=O)c1O | 71.3 | – | 1.7 | –
17 | O=c1c2ccsc2n(Cc2ccccc2)c(=O)n1O | 0.68 | > 100 | 80.4 | –
18 | CNC(=O)c1nc(-c2cccs2)[nH]c(=O)c1O | 12 | 67.6 | 0.6 | inhibition [9]: inactive; inhibition [10]: inactive; half-life [4]: > 6.67 h; Activity [5]: > 10 µM; half-life [6]: 3.02 h; Papp [7]: 3.1 ×10⁻⁶ cm/s; Activity [11]: Non-toxic; logD [8]: 0.5; inhibition [12]: inactive; Kd [13]: 4 µM; ΔTm [14]: 4 °C
19 | O=C(NCCO)c1nc(-c2cccs2)[nH]c(=O)c1O | 4 | > 100 | 0.7 | –

Row | SMILES | IC50 [1] [µM] | IC50 [2] [µM] | IC50 [3] [µM] | also measured
20 | CC(C)CCNC(=O)c1nc(C2CCCN(C)C2)[nH]c(=O)c1O (configuration not stated) | > 100 | – | 25.3 | –
21 | CC(C)CCNC(=O)c1nc(C2CCCCN2)[nH]c(=O)c1O (configuration not stated) | > 100 | – | 6.3 | –
22 | CC(C)CCNC(=O)c1nc(-c2cccs2)[nH]c(=O)c1O | 3.5 | – | 0.5 | –
23 | O=C(c1nc(-c2cccs2)[nH]c(=O)c1O)N1CCCC1 | 13.7 | – | 4.6 | –
24 | COC(=O)c1nc(-c2ccccc2)[nH]c(=O)c1O | 53.4 | > 100 | 16.4 | –
25 | O=C1c2cccc3cccc(c23)C(=O)N1O | 0.3 | – | 30 | –
26 | CC(=O)Nc1ccc2c(=O)n(O)c(=O)[nH]c2c1 | 2.1 | > 100 | 6.4 | –
27 | CC(=O)Nc1ccc2[nH]c(=O)n(O)c(=O)c2c1 | 2 | 87 | 6.6 | –
28 | O=c1[nH]c2sccc2c(=O)n1O | 0.009 | > 100 | 3.9 | –
29 | Cc1ccc(-c2coc3c(=O)n(O)c(=O)[nH]c23)cc1 | 0.057 | > 100 | 1.5 | –
30 | CC(C)CCNC(=O)c1nc(C2CCN(C)CC2)[nH]c(=O)c1O | > 100 | – | 6.9 | –
31 | O=c1[nH]c2c(-c3ccccc3)csc2c(=O)n1O | 0.003 | > 100 | 1.8 | –
32 | CC(=O)Nc1cccc2c(=O)n(O)c(=O)[nH]c12 | 0.038 | > 100 | 6.1 | –
33 | CC(C)CCNC(=O)c1nc(-c2ccc(CN3CCOCC3)cc2)[nH]c(=O)c1O | 38.1 | – | 0.8 | –
34 | COc1nc(-c2cccs2)nc(C(=O)O)c1O | – | – | > 100 | –
35 | O=c1cc(-c2ccccc2)[nH]c(=O)n1O | 0.63 | > 100 | 1.5 | –
36 | CCC(C)NC(=O)c1nc(-c2cccs2)[nH]c(=O)c1O (configuration not stated) | 1.3 | > 100 | 0.6 | half-life [4]: > 6.67 h; Activity [5]: > 10 µM; half-life [6]: > 6.67 h; Papp [7]: 9.7 ×10⁻⁶ cm/s; logD [8]: 2.1
37 | Cn1c(-c2cccs2)nc(C(=O)O)c(O)c1=O | 88.9 | > 100 | 48.8 | –
38 | O=C(Nc1ccc(F)cc1)c1nc(-c2cccs2)[nH]c(=O)c1O | 10.5 | – | 0.8 | –
